The NIST ThermoML archive (doi:10.1016/j.tca.2006.01.013)
± gives the expanded uncertainty stated by the source.

Details: 101.33 kPa, Liquid, Vibrating tube method

NCCN [ethane-1,2-diamine]
Details | mass density [kg/m3]
285.15 K | 904.27 ± 0.47
285.65 K | 903.81 ± 0.47
286.15 K | 903.34 ± 0.47
286.65 K | 902.87 ± 0.47
287.15 K | 902.41 ± 0.47
287.65 K | 901.94 ± 0.47
288.15 K | 901.47 ± 0.47
288.65 K | 901 ± 0.47
289.15 K | 900.53 ± 0.47
289.65 K | 900.07 ± 0.47
290.15 K | 899.6 ± 0.47
290.65 K | 899.13 ± 0.47
291.15 K | 898.66 ± 0.46
291.65 K | 898.19 ± 0.46
292.15 K | 897.72 ± 0.46
292.65 K | 897.25 ± 0.46
293.15 K | 896.78 ± 0.46
293.65 K | 896.31 ± 0.46
294.15 K | 895.85 ± 0.46
294.65 K | 895.38 ± 0.46
295.15 K | 894.91 ± 0.46
295.65 K | 894.44 ± 0.46
296.15 K | 893.97 ± 0.46
296.65 K | 893.5 ± 0.46
297.15 K | 893.03 ± 0.46
297.65 K | 892.56 ± 0.46
298.15 K | 892.09 ± 0.46
298.65 K | 891.62 ± 0.46
299.15 K | 891.14 ± 0.46
299.65 K | 890.67 ± 0.46
300.15 K | 890.2 ± 0.46
300.65 K | 889.73 ± 0.46
301.15 K | 889.26 ± 0.46
301.65 K | 888.79 ± 0.46
302.15 K | 888.32 ± 0.46
302.65 K | 887.85 ± 0.46
303.15 K | 887.38 ± 0.46
303.65 K | 886.9 ± 0.46
304.15 K | 886.43 ± 0.46
304.65 K | 885.96 ± 0.46
305.15 K | 885.49 ± 0.46
305.65 K | 885.02 ± 0.46
306.15 K | 884.54 ± 0.46
306.65 K | 884.07 ± 0.46
307.15 K | 883.6 ± 0.46
307.65 K | 883.12 ± 0.46
308.15 K | 882.65 ± 0.46
308.65 K | 882.18 ± 0.46
309.15 K | 881.7 ± 0.46
309.65 K | 881.23 ± 0.46
310.15 K | 880.76 ± 0.46
310.65 K | 880.28 ± 0.46
311.15 K | 879.81 ± 0.46
311.65 K | 879.33 ± 0.46
312.15 K | 878.86 ± 0.46
312.65 K | 878.38 ± 0.46
313.15 K | 877.91 ± 0.46
313.65 K | 877.44 ± 0.46
314.15 K | 876.96 ± 0.46
314.65 K | 876.48 ± 0.46
315.15 K | 876.01 ± 0.46
315.65 K | 875.53 ± 0.46
316.15 K | 875.06 ± 0.46
316.65 K | 874.58 ± 0.46
317.15 K | 874.11 ± 0.46
317.65 K | 873.63 ± 0.46
318.15 K | 873.15 ± 0.46
318.65 K | 872.68 ± 0.46
319.15 K | 872.2 ± 0.46
319.65 K | 871.72 ± 0.46
320.15 K | 871.25 ± 0.45
320.65 K | 870.77 ± 0.45
321.15 K | 870.29 ± 0.45
321.65 K | 869.81 ± 0.45
322.15 K | 869.34 ± 0.45
322.65 K | 868.86 ± 0.45
323.15 K | 868.38 ± 0.45
323.65 K | 867.9 ± 0.45
324.15 K | 867.42 ± 0.45
324.65 K | 866.94 ± 0.45
325.15 K | 866.47 ± 0.45
325.65 K | 865.99 ± 0.45
326.15 K | 865.51 ± 0.45
326.65 K | 865.03 ± 0.45
327.15 K | 864.55 ± 0.45
327.65 K | 864.07 ± 0.45
328.15 K | 863.59 ± 0.45
328.65 K | 863.11 ± 0.45
329.15 K | 862.63 ± 0.45
329.65 K | 862.14 ± 0.45
330.15 K | 861.66 ± 0.45
330.65 K | 861.18 ± 0.45
331.15 K | 860.7 ± 0.45
331.65 K | 860.22 ± 0.45
332.15 K | 859.74 ± 0.45
332.65 K | 859.25 ± 0.45
333.15 K | 858.77 ± 0.45
333.65 K | 858.29 ± 0.45
334.15 K | 857.81 ± 0.45
334.65 K | 857.32 ± 0.45
335.15 K | 856.84 ± 0.45
335.65 K | 856.36 ± 0.45
336.15 K | 855.87 ± 0.45
336.65 K | 855.39 ± 0.45
337.15 K | 854.91 ± 0.45
337.65 K | 854.42 ± 0.45
338.15 K | 853.93 ± 0.45
338.65 K | 853.45 ± 0.45
339.15 K | 852.96 ± 0.45
339.65 K | 852.48 ± 0.45
340.15 K | 851.99 ± 0.45
340.65 K | 851.51 ± 0.45
341.15 K | 851.02 ± 0.45
341.65 K | 850.53 ± 0.45
342.15 K | 850.05 ± 0.45
342.65 K | 849.56 ± 0.45
343.15 K | 849.07 ± 0.45
343.65 K | 848.58 ± 0.45
344.15 K | 848.1 ± 0.45
344.65 K | 847.61 ± 0.45
345.15 K | 847.12 ± 0.45
345.65 K | 846.63 ± 0.45
346.15 K | 846.14 ± 0.45
346.65 K | 845.66 ± 0.45
347.15 K | 845.17 ± 0.45
347.65 K | 844.68 ± 0.45
348.15 K | 844.19 ± 0.45
348.65 K | 843.7 ± 0.45
349.15 K | 843.21 ± 0.45
349.65 K | 842.72 ± 0.45
350.15 K | 842.23 ± 0.45
350.65 K | 841.75 ± 0.45
351.15 K | 841.26 ± 0.45
351.65 K | 840.76 ± 0.44
352.15 K | 840.27 ± 0.44
352.65 K | 839.78 ± 0.44
353.15 K | 839.29 ± 0.44
353.65 K | 838.8 ± 0.44
354.15 K | 838.31 ± 0.44
354.65 K | 837.81 ± 0.44
355.14 K | 837.32 ± 0.44
355.65 K | 836.83 ± 0.44
356.15 K | 836.33 ± 0.44
356.64 K | 835.84 ± 0.44
357.15 K | 835.35 ± 0.44
357.65 K | 834.85 ± 0.44
358.14 K | 834.36 ± 0.44
358.64 K | 833.86 ± 0.44
359.14 K | 833.37 ± 0.44
359.64 K | 832.87 ± 0.44
360.14 K | 832.38 ± 0.44
360.64 K | 831.88 ± 0.44
361.14 K | 831.38 ± 0.44
361.65 K | 830.89 ± 0.44
362.15 K | 830.39 ± 0.44
362.65 K | 829.89 ± 0.44
363.15 K | 829.4 ± 0.44
